Experiment [1] deals with Cyclin-dependent kinase 17 (Homo sapiens) (UniProt Q00537). Kind of experiment: Selectivity interaction (KinomeScan (DiscoverX)) EUB0001619a CDK17. Particulars: at 1 µM.
For experiment [2], the target named is Tyrosine-protein kinase Lyn (Homo sapiens, UniProt P07948). Description: Selectivity interaction (KinomeScan (DiscoverX)) EUB0001619a LYN. To be noted: at 1 µM.
The target in experiment [3] is Mitogen-activated protein kinase kinase kinase kinase 4 (Homo sapiens, UniProt O95819). To be noted: at 10 µM.
For experiment [4], the target named is T1, Mitogen-activated protein kinase 15 (Homo sapiens) (UniProt Q8TD08).
T1 sequence (whole entry): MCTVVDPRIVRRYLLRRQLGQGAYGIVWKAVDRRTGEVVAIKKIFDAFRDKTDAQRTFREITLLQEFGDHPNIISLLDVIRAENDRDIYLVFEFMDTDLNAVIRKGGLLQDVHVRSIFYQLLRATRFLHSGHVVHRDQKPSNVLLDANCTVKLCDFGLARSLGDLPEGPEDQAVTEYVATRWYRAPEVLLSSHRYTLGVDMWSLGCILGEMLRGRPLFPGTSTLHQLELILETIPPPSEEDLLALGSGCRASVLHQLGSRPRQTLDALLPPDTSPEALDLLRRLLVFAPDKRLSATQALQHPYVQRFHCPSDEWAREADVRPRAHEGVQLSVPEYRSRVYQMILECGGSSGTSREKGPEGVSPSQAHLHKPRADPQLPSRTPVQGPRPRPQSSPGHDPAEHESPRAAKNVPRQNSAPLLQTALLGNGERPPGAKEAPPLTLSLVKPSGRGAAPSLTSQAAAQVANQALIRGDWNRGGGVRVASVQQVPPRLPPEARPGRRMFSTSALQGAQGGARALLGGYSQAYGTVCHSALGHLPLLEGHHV
Description: Selectivity interaction (KinomeScan (DiscoverX)) EUB0000666a MAPK15. To be noted: at 10 µM.

For experiment [5], the target named is Receptor tyrosine-protein kinase erbB-2 (Homo sapiens, UniProt P04626). Description: Selectivity interaction (KinomeScan (DiscoverX)) EUB0000607a ERBB2. Particulars: at 10 µM.
Experiment [6] deals with Fibroblast growth factor receptor 4 (Homo sapiens, UniProt P22455). Description: Selectivity interaction (KinomeScan (DiscoverX)) EUB0000607a FGFR4. To be noted: at 10 µM.
The target in experiment [7] is Cyclin-dependent kinase 17 (Homo sapiens) (UniProt Q00537). Description: Selectivity interaction (ActivX KiNativ screen (kinase selectivity in THP-1 cell lysates)) EUB0000639a CDK17. Particulars: lysate, at 0.04 µM. Format: subcellular.
Experiment [8] addresses T2, Ephrin type-B receptor 4 (Homo sapiens) (UniProt P54760).
T2 sequence (whole entry): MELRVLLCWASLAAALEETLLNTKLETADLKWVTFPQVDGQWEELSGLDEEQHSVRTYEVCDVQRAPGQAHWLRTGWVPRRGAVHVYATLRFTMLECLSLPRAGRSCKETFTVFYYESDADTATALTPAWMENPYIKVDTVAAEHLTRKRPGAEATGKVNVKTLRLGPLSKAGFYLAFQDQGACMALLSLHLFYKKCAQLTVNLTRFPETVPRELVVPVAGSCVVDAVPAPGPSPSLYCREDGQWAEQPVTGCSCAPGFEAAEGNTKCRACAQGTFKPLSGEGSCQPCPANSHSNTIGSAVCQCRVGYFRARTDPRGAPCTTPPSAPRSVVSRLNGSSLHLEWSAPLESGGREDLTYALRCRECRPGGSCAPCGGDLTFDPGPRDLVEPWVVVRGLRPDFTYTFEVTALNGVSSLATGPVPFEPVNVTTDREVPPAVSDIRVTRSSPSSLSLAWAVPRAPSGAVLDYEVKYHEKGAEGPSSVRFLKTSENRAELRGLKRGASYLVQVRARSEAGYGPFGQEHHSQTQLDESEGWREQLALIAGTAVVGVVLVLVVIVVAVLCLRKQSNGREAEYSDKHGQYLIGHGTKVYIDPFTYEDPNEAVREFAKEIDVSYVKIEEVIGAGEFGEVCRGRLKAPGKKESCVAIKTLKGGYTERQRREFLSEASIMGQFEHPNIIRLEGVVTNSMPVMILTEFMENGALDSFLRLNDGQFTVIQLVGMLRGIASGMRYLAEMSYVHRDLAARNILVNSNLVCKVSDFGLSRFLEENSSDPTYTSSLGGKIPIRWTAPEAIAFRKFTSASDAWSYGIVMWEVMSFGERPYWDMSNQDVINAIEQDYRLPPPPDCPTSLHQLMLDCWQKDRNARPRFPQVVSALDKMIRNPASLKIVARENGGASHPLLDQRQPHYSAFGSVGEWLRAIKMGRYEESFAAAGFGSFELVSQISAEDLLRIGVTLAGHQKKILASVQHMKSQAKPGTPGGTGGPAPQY
Kind of experiment: Selectivity interaction (KinomeScan (DiscoverX)) EUB0000045b EPHB4.

For experiment [9], the target named is SRSF protein kinase 3 (Homo sapiens) (UniProt Q9UPE1). Description: Selectivity interaction (ProQinase) EUB0000171b SRPK3.
Experiment [10] has as its target Serine/threonine-protein kinase 33 (Homo sapiens) (UniProt Q9BYT3). Description: Selectivity interaction (KinomeScan (DiscoverX)) EUB0001049a STK33. Particulars: at 1 µM.
The target in experiment [11] is Cyclin-dependent kinase 17 (Homo sapiens) (UniProt Q00537). Kind of experiment: Selectivity interaction (KinomeScan (DiscoverX)) EUB0000618a CDK17. To be noted: at 10 µM.
Experiment [12] has as its target T3, cGMP-dependent protein kinase 2 (Homo sapiens) (UniProt Q13237).
T3 sequence (whole entry): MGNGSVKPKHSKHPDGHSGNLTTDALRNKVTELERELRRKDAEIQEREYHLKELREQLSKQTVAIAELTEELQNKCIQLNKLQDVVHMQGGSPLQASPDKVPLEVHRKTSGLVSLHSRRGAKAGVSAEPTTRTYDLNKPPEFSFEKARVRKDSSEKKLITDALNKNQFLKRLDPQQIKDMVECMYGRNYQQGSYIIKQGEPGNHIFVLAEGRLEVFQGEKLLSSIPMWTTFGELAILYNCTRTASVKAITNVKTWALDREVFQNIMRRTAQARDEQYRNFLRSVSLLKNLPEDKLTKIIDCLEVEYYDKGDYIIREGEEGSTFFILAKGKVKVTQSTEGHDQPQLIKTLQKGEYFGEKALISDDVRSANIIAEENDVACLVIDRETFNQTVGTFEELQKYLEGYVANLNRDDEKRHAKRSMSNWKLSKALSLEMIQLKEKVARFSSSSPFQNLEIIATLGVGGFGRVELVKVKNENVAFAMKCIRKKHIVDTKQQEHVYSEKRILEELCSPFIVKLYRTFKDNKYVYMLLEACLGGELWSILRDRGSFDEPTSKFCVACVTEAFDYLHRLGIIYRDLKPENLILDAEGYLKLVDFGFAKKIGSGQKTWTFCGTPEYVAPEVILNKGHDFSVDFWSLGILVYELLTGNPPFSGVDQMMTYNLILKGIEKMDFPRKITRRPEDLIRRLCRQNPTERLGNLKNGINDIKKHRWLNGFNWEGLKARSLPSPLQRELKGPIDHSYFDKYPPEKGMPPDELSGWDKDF
Description: Selectivity interaction (KinomeScan (DiscoverX)) EUB0000092b PRKG2. Particulars: at 10 µM.

Experimental findings from ChEMBL document CHEMBL5465560, “Selectivity Literature for EUbOPEN Chemogenomic Library” (2024) are described below.

Each structure is given as a SMILES string.

Chain of Cyclin-dependent kinase 17 (Homo sapiens) (Q00537 whole entry, looked up): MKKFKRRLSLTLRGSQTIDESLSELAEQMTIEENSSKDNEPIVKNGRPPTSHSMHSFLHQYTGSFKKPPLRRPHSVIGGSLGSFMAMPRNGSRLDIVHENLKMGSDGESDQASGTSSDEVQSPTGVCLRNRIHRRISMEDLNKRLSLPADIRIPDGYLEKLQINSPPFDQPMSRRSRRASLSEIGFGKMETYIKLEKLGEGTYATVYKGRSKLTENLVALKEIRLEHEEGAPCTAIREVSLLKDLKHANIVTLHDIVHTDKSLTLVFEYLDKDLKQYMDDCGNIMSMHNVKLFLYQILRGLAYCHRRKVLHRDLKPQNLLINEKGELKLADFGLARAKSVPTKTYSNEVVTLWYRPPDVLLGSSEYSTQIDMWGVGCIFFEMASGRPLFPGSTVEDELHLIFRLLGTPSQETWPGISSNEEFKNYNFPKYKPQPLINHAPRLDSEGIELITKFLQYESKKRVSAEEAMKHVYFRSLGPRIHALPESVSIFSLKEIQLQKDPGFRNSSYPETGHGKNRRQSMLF
Chain of SRSF protein kinase 3 (Homo sapiens) (Q9UPE1 whole entry): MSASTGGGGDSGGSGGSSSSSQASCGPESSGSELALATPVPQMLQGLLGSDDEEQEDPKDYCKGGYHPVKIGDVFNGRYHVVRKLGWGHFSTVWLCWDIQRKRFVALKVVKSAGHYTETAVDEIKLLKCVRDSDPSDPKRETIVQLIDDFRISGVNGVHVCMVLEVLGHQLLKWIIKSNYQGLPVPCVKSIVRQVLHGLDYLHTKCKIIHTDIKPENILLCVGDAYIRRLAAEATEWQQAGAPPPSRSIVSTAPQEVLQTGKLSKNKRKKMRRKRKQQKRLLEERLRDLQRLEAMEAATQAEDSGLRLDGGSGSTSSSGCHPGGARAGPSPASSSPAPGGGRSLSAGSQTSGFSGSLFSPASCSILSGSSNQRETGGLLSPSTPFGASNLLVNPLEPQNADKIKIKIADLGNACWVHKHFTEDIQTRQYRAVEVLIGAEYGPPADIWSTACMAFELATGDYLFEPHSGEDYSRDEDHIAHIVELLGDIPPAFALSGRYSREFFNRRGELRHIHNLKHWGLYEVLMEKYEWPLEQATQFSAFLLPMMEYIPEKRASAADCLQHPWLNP
Chain of Fibroblast growth factor receptor 4 (P22455 22-802 limits assumed): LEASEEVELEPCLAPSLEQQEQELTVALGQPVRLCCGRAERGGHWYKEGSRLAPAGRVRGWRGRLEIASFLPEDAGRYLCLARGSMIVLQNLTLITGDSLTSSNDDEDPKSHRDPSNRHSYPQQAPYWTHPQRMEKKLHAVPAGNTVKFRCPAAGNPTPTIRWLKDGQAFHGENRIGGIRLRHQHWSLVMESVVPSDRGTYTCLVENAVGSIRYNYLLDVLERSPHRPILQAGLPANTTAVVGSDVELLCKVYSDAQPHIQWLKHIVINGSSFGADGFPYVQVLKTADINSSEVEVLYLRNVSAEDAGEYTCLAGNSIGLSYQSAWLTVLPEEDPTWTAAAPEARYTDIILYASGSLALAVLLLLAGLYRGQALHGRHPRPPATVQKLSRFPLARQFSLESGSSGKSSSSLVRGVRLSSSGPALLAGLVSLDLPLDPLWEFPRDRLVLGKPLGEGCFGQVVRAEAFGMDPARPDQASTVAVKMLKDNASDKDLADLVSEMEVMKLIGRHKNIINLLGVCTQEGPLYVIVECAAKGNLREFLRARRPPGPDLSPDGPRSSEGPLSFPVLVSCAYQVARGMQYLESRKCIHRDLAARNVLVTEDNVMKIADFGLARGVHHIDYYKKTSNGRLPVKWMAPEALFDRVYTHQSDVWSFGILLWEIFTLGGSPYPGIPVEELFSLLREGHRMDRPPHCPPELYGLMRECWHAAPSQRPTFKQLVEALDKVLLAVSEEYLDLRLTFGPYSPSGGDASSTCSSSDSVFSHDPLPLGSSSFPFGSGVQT
Chain of Mitogen-activated protein kinase kinase kinase kinase 4 (O95819 2-1239 limits assumed): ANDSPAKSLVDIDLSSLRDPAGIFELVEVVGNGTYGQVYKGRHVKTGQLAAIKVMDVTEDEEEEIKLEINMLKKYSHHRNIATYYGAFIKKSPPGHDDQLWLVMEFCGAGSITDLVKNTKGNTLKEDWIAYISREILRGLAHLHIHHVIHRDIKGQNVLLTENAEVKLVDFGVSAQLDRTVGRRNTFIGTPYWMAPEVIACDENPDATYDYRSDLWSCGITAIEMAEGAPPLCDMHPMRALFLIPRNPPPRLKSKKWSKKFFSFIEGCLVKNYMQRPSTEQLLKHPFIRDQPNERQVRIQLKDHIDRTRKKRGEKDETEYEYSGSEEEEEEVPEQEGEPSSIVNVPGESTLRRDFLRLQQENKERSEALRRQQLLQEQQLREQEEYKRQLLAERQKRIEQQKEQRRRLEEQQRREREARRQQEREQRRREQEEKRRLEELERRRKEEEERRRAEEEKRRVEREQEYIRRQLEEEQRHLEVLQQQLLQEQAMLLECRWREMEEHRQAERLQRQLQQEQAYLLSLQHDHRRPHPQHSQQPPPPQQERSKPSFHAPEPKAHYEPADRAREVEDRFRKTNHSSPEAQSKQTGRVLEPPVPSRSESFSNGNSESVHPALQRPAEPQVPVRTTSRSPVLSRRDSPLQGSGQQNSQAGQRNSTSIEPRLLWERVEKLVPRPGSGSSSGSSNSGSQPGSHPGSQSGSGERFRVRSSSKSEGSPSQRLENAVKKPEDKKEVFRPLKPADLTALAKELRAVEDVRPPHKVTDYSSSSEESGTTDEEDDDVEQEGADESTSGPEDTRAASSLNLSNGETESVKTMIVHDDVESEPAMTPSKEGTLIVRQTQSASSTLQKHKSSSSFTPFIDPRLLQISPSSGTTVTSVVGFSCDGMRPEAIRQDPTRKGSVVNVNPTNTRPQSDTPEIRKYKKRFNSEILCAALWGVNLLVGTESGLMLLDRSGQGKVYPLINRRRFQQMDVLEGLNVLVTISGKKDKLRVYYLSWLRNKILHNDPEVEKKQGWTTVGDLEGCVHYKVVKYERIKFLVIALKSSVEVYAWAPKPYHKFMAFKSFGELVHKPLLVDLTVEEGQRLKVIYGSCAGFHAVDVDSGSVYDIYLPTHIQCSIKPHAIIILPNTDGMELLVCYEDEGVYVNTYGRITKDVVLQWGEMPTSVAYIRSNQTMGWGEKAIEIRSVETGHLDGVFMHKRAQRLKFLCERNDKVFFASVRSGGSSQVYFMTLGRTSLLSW
Chain of Receptor tyrosine-protein kinase erbB-2 (P04626 whole entry): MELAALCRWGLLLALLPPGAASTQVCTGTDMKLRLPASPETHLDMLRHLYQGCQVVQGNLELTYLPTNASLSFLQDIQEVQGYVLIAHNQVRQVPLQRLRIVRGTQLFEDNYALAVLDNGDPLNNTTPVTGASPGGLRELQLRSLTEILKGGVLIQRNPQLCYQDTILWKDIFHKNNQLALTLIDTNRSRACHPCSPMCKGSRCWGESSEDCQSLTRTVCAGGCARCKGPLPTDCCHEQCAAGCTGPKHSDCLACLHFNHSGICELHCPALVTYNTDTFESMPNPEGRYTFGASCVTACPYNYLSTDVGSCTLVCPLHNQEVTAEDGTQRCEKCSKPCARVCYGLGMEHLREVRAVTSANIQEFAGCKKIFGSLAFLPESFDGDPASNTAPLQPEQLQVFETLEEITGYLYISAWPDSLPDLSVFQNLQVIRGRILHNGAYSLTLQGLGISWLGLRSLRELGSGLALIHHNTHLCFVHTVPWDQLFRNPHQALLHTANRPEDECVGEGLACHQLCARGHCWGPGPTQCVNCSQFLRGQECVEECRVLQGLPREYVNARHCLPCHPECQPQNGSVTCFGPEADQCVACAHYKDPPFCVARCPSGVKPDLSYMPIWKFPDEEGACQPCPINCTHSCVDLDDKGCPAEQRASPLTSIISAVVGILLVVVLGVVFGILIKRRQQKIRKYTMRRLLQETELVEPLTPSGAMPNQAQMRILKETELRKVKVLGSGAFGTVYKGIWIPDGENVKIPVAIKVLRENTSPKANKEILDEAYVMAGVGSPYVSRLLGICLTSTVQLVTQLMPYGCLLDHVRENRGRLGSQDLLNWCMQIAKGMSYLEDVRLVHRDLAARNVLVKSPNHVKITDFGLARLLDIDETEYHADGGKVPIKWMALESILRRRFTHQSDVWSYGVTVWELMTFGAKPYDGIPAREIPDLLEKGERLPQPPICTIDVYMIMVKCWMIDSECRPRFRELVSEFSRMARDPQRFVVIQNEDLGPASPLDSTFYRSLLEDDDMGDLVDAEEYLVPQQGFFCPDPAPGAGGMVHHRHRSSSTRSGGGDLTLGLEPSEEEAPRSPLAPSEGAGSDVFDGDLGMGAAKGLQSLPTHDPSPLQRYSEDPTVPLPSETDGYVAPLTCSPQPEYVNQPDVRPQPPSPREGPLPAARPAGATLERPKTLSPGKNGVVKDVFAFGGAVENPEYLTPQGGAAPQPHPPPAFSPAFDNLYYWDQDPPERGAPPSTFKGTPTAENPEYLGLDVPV
Chain of Tyrosine-protein kinase Lyn (P07948 2-512 limits assumed): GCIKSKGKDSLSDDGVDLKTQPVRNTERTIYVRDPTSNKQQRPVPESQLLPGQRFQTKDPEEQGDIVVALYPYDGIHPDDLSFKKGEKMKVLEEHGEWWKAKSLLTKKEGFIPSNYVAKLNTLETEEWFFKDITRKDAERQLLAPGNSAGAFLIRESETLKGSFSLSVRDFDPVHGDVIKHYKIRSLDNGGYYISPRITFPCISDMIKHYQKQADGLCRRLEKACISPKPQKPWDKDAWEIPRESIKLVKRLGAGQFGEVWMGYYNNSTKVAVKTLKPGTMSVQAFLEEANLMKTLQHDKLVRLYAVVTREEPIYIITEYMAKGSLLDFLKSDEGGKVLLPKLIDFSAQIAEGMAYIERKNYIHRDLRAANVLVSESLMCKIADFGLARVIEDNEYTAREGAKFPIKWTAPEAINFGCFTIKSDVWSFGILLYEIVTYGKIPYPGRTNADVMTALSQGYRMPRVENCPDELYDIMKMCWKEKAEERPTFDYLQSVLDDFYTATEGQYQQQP

`N#Cc1cccc(-c2c[nH]c3ncnc(N4CCOCC4)c23)c1`: the figures for the % of control in experiment [1] and in [2] were 100% and 91%, respectively.

In the case of `CCN(CC)CCCCNc1ncc2cc(-c3cc(OC)cc(OC)c3)c(NC(=O)NC(C)(C)C)nc2n1`, the % of control in [3] amounted to 100%.

On to `O=C(NOC[C@H](O)CO)c1ccc(F)c(F)c1Nc1ccc(I)cc1F`, for which the % of control in experiment [4] is 100%.

`CNC(=O)Nc1ccc(-c2nc(N3CC4CCC(C3)O4)c3cnn(C4CCC5(CC4)OCCO5)c3n2)cc1`: the % of control in experiment [5] stood at 88%; in experiment [6], 62%.

For `CC[C@@H]1[C@H](F)C(=O)N[C@@H]1COc1nccc2cc(C(N)=O)c(OC)cc12` [ZIMLOVISERTIB], the % of inhibition in experiment [7] stood at 1.7%.

`C=CC(=O)Nc1cc(-n2c(=O)ccc3cnc4ccc(-c5ccc(NS(C)(=O)=O)cc5)cc4c32)ccc1C`: the % of control in experiment [8] (at 1 µM) and in experiment [8] (at 10 µM) was 100% in each case.

Consider `C=CC(=O)Nc1cccc(C(=O)Nc2ccc(Nc3cc(-c4[nH]c(SC)nc4C)ccn3)cc2)c1`, for which the % of control was 97% in experiment [9] (at 1 µM) and 101% in experiment [9] (at 5 µM).

Consider `COc1cc(Nc2nc(C)cc(-c3cnn4nc(OC)ccc34)n2)cc(C(F)(F)F)c1`, for which the % of control in experiment [10] amounted to 94%.

Molecule `O[C@H]1CC[C@H](Nc2ncc3nc(Nc4c(F)cc(F)cc4F)n([C@H]4CCOC4)c3n2)CC1` displayed a % of control in experiment [11] of 100%.

In the case of `CCC(=O)N1CCN(c2ccc(-n3c(=O)ccc4cnc5ccc(-c6cnc7ccccc7c6)cc5c43)cc2C(F)(F)F)CC1`, in [12], the % of control was 78%.
